Measured values taken from PMC11532403 (Signal Transduction and Targeted Therapy, 2024).
Like-named read-outs stand apart in the source and are kept apart here.

Assay: Phase 1 trial: plasma pharmacokinetics
Assay type: in vivo
Conditions: human; for AUC(0-t): read-out: AUC0–12 h mean; for MRT inf: read-out: MRTINF_obs mean
Text: Serial plasma samples were also collected in each patient after the first dose and during multiple-dose administration on Cycle 1 Day 28.

[1] = 200 mg, Cycle 1 Day 28, 200 mg BID (n = 5)
[2] = oral, 20 mg, Cycle 1 Day 28, 20 mg BID (n = 1)
[3] = oral, 20 mg, Cycle 1 Day 28, 20 mg QD (n = 1)
[4] = oral, 40 mg, Cycle 1 Day 28, 40 mg BID (n = 3)
[5] = oral, 80 mg, Cycle 1 Day 28, 80 mg BID (n = 3)
[6] = oral, 120 mg, Cycle 1 Day 28, 120 mg BID (n = 3)
[7] = oral, 200 mg, Cycle 1 Day 1, 200 mg BID (n = 9)

In the case of `COc1ccc(CN2C3CC2CN(c2ccc(-c4cc(N5CC(C)(O)C5)cn5ncc(C#N)c45)cn2)C3)cn1` [SY-5007, 6-(3-hydroxy-3-methylazetidin-1-yl)-4-(6-(6-((6-methoxypyridin-3-yl)methyl)-3,6-diazabicyclo[3.1.1]heptan-3-yl)pyridin-3-yl)pyrazolo[1,5-a]pyridine-3-carbonitrile], the Tmax (160 mg, Cycle 1 Day 28, 160 mg BID (n = 15), read-out: Tmax mean) was 2 h, the AUC(0-t) [1] was 41100 ng·h/mL and the AUC(0-inf) (200 mg, Cycle 1 Day 28, 200 mg BID (n = 5), read-out: AUCINF_obs mean) was 63700 ng·h/mL. It also gave a Cmax (200 mg, Cycle 1 Day 28, 200 mg BID (n = 5), read-out: Cmax mean) of 5520 ng/mL, an MRT inf [1] of 10.8 h and a half-life (200 mg, Cycle 1 Day 28, 200 mg BID (n = 5), read-out: T1/2 mean (converted)) of 420 min. For the same compound, the Tmax (200 mg, Cycle 1 Day 28, 200 mg BID (n = 5), read-out: Tmax mean) was 2 h, the AUC(0-t) [2] was 2940 ng·h/mL and the AUC(0-inf) (oral, 20 mg, Cycle 1 Day 28, 20 mg BID (n = 1), read-out: AUCINF_obs mean) was 4020 ng·h/mL. It also gave a Cmax (oral, 20 mg, Cycle 1 Day 28, 20 mg BID (n = 1), read-out: Cmax mean) of 640 ng/mL, an MRT inf [2] of 9 h and a half-life (oral, 20 mg, Cycle 1 Day 28, 20 mg BID (n = 1), read-out: T1/2 mean (converted)) of 438 min. For the same compound, the Tmax (oral, 20 mg, Cycle 1 Day 28, 20 mg BID (n = 1), read-out: Tmax mean) was 0.5 h, the AUC(0-t) [3] was 2200 ng·h/mL and the AUC(0-inf) (oral, 20 mg, Cycle 1 Day 28, 20 mg QD (n = 1), read-out: AUCINF_obs mean) was 2340 ng·h/mL. For the same compound, the Cmax (oral, 20 mg, Cycle 1 Day 28, 20 mg QD (n = 1), read-out: Cmax mean) was 388 ng/mL, the MRT inf [3] was 7.7 h and the half-life (oral, 20 mg, Cycle 1 Day 28, 20 mg QD (n = 1), read-out: T1/2 mean (converted)) was 360 min. For the same compound, the Tmax (oral, 20 mg, Cycle 1 Day 28, 20 mg QD (n = 1), read-out: Tmax mean) was 1 h, the AUC(0-t) [4] was 5810 ng·h/mL and the AUC(0-inf) (oral, 40 mg, Cycle 1 Day 28, 40 mg BID (n = 3), read-out: AUCINF_obs mean) was 7100 ng·h/mL. It also gave a Cmax (oral, 40 mg, Cycle 1 Day 28, 40 mg BID (n = 3), read-out: Cmax mean) of 1280 ng/mL, an MRT inf [4] of 6.8 h and a half-life (oral, 40 mg, Cycle 1 Day 28, 40 mg BID (n = 3), read-out: T1/2 mean (converted)) of 300 min. The Tmax (oral, 40 mg, Cycle 1 Day 28, 40 mg BID (n = 3), read-out: Tmax mean) was 0.5 h, the AUC(0-t) [5] was 12600 ng·h/mL and the AUC(0-inf) (oral, 80 mg, Cycle 1 Day 28, 80 mg BID (n = 3), read-out: AUCINF_obs mean) was 18800 ng·h/mL. For the same compound, the Cmax (oral, 80 mg, Cycle 1 Day 28, 80 mg BID (n = 3), read-out: Cmax mean) was 1960 ng/mL, the MRT inf [5] was 8.2 h and the half-life (oral, 80 mg, Cycle 1 Day 28, 80 mg BID (n = 3), read-out: T1/2 mean (converted)) was 330 min. For the same compound, the Tmax (oral, 80 mg, Cycle 1 Day 28, 80 mg BID (n = 3), read-out: Tmax mean) was 1 h, the AUC(0-t) [6] was 21500 ng·h/mL and the AUC(0-inf) (oral, 120 mg, Cycle 1 Day 28, 120 mg BID (n = 3), read-out: AUCINF_obs mean) was 34000 ng·h/mL. The Cmax (oral, 120 mg, Cycle 1 Day 28, 120 mg BID (n = 3), read-out: Cmax mean) was 2870 ng/mL, the MRT inf [6] was 10.5 h and the half-life (oral, 120 mg, Cycle 1 Day 28, 120 mg BID (n = 3), read-out: T1/2 mean (converted)) was 420 min. The Tmax (oral, 120 mg, Cycle 1 Day 28, 120 mg BID (n = 3), read-out: Tmax mean) was 1 h, the AUC(0-t) [7] was 14900 ng·h/mL and the AUC(0-inf) (oral, 200 mg, Cycle 1 Day 1, 200 mg BID (n = 9), read-out: AUCINF_obs mean) was 21600 ng·h/mL. For the same compound, the Cmax (oral, 200 mg, Cycle 1 Day 1, 200 mg BID (n = 9), read-out: Cmax mean) was 3180 ng/mL, the MRT inf [7] was 15 h and the half-life (oral, 200 mg, Cycle 1 Day 1, 200 mg BID (n = 9), read-out: T1/2 mean (converted)) was 1430 min. For the same compound, the Tmax (oral, 200 mg, Cycle 1 Day 1, 200 mg BID (n = 9), read-out: Tmax mean) was 1 h, the AUC(0-inf) (oral, single dose, 20 mg to 160 mg, read-out: AUCINF_obs range) was 2410 to 21300 ng·h/mL and the Cmax (oral, single dose, 20 mg to 160 mg, read-out: Cmax range) was 214 to 3470 ng/mL. It also gave a half-life (oral, single dose, read-out: Mean T1/2 across dose cohorts) of 408 to 2660 min and a Tmax (oral, single dose, read-out: Mean Tmax across dose cohorts) of 0.5 to 4 h.
